Reference: US20110183978A1, “Phenylpyri(mi)dinylazoles” (Bayer CropScience AG, priority 2009, published 2011)
Where two headings read alike, the source gives them in different places.

Legend:
[1] = system: Sphaerotheca fuliginea; test: Example L: in vivo test on Sphaerotheca fuliginea (powdery mildew on cucumber/protective); conditions: Podosphaera fuliginea, 168 h, cucumber, protective, assessment 7 days after inoculation, read-out: % Wirkungsgrad
Experimental: (§1) Solvent: 49 parts by weight N,N-dimethylformamide Emulsifier: 1 part by weight alkylaryl polyglycol ethers For the preparation of a suitable active substance preparation, 1 part by weight of active substance is mixed with the stated quantities of solvent and emulsifier and the concentrate is diluted to the desired concentration with water. For the testing for protective activity, young cucumber plants are sprayed with the active substance preparation at the stated application dosage. One day after the treatment, the plants are inoculated with a spore suspension of Sphaerotheca fuliginea. Next, the plants are placed in a greenhouse at 70% relative atmospheric humidity and a temperature of 23° C. 7 days after the inoculation, the assessment takes place.

[2] = system: Alternaria solani; test: Example M: in vivo test on Alternaria solani (leaf blotch disease/tomato/protective); conditions: 168 h, tomato, protective, 500 ppm active substance, assessed 7 days after inoculation, read-out: % Wirkungsgrad (activity level)
Experimental: as §1, with “tomato” for “cucumber”, “One day after the treatment, the plants are inoculated with a spore suspension of Sphaerotheca fuliginea. Next, the plants are placed in a greenhouse at 70% relative atmospheric humidity and a temperature of 23° C.” left out

[3] = physchem; conditions: LogPA
[4] = system: Fusarium graminearum; test: microbe, parasite or virus in culture; assay type: cell-based

Structure (SMILES)	pest or weed control at 500 ppm [1]	pest or weed control at 500 ppm [2]	chromatographic logP [3]	inhibition at 50 µM ([4]; 72 h, read-out: % Inhibition des Pilzwachstums bei 50 μM)	inhibition at 50 µM ([4]; 168 h, read-out: % Inhibition der DON/AcDON produktion bei 50 μM)
COCC(C)Nc1nccc(-c2cn(CC(C)C)nc2-c2ccc(F)cc2)n1 (stereo not shown) [Compound 285]	89%	95%	2.39	–	–
CCC(C)Nc1nccc(-c2cn(CC(C)C)nc2-c2ccc(F)cc2)n1 (stereo not shown) [Compound 286]	89%	90%	2.68	–	–
CCn1cc(-c2ccnc(NC(=O)C(C)C)c2)c(-c2ccc(F)cc2)n1 [Compound 290]	100%	100%	2.14	–	–
CCn1cc(-c2ccnc(NC(=O)CC3CC3)c2)c(-c2ccc(F)cc2)n1 [Compound 291]	95%	100%	2.29	–	–
CCCn1cc(-c2ccnc(NC(=O)CC)c2)c(-c2ccc(F)cc2)n1 [Compound 292]	95%	100%	2.15	–	–
CCCn1cc(-c2ccnc(NC(=O)COC)c2)c(-c2ccc(F)cc2)n1 [Compound 293]	94%	100%	2.58	–	–
CCCn1cc(-c2ccnc(NC(=O)C(C)C)c2)c(-c2ccc(F)cc2)n1 [Compound 294]	98%	100%	2.49	–	–
CCCn1cc(-c2ccnc(NC(=O)CC3CC3)c2)c(-c2ccc(F)cc2)n1 [Compound 295]	94%	100%	2.66	–	–
CCC(=O)Nc1cc(-c2cn(C)nc2-c2ccc(F)cc2)ccn1 [Compound 296]	84%	100%	1.56	–	–
COCC(=O)Nc1cc(-c2cn(C)nc2-c2ccc(F)cc2)ccn1 [Compound 297]	90%	100%	1.89	–	–
CC(C)C(=O)Nc1cc(-c2cn(C)nc2-c2ccc(F)cc2)ccn1 [Compound 298]	100%	80%	1.83	–	–
Cn1cc(-c2ccnc(NC(=O)CC3CC3)c2)c(-c2ccc(F)cc2)n1 [Compound 299]	84%	100%	1.98	–	–
CCC(=O)Nc1cc(-c2cn(CCSC)nc2-c2ccc(F)cc2)ccn1 [Compound 300]	90%	80%	2.12	–	–
CCC(=O)Nc1cc(-c2cn(C(C)C3CC3)nc2-c2ccc(F)cc2)ccn1 (stereo not shown) [Compound 301]	95%	95%	2.54	–	–
CCC(=O)Nc1cc(-c2cn(CCC#N)nc2-c2ccc(F)cc2)ccn1 [Compound 303]	95%	100%	1.63	–	–
CSCCn1cc(-c2ccnc(NC(=O)C(C)C)c2)c(-c2ccc(F)cc2)n1 [Compound 306]	94%	95%	2.44	–	–
CC(C)C(=O)Nc1cc(-c2cn(C(C)C3CC3)nc2-c2ccc(F)cc2)ccn1 (stereo not shown) [Compound 307]	100%	100%	2.9	–	–
CC(C)C(=O)Nc1cc(-c2cn(CCC#N)nc2-c2ccc(F)cc2)ccn1 [Compound 309]	100%	100%	1.91	–	–
CCC(=O)Nc1cc(-c2cn(C(C)CC#N)nc2-c2ccc(F)cc2)ccn1 (stereo not shown) [Compound 312]	100%	100%	1.87	–	–
CCOCCn1cc(-c2ccnc(NC(=O)COC)c2)c(-c2ccc(F)cc2)n1 [Compound 327]	–	95%	2.38	105%	100%
CCn1cc(-c2ccnc(NC(=O)CCCC(=O)OC)c2)c(-c2ccc(F)cc2)n1 [Compound 331]	94%	–	2.02	–	–
CCn1cc(-c2ccnc(NC(=O)c3snnc3C)c2)c(-c2ccc(F)cc2)n1 [Compound 335]	74%	–	2.72	–	–
Cn1cc(-c2ccnc(NC(=O)c3ccccc3)c2)c(-c2ccc(F)cc2)n1 [Compound 346]	95%	–	2.42	–	–
